Test results published in EP0005299A1, “Substituted 1-phenyl-2,3,4,5-tetrahydro-1H-3-benzazepines, process for the preparation thereof, and pharmaceutical compositions containing them” (priority 1978, dated 1979).
Structures can show the parent of a compound that is named as a salt.

Tests used:
methamphetamine = experiment: Methamphetamine reversal assay; assay type: in vivo, mice
muricidal behavior = experiment: Anti-muricide assay; assay type: in vivo, Male Long Evans rats; settings: Rattus norvegicus, ip; rats, intraperitoneal injection, mouse presented at 30 and 60 minutes; dosage at which 50% of the tested rats do not kill mice
Procedure: Anti-muricide assay: Male Long Evans rats weighing 225-250 g are housed I rat per cage, and killers (rats show an instinctive mouse killing behavior (muricide)) are selected initially after being deprived of food for approximately 66 hours. This is the only time the rats are deprived of food. Food, ad libitum, is-avaiable on the cage floor since food bins are not practical because they afford a hiding place for mice. The rats are tested for muricidal behavior the following day and once a week thereafter; non-killers are always eliminated. A non-killer is a rat which fails to kill a mouse placed into his cage within 5 minutes. Drugs are tested in the afternoon of the day following this weekly check for persistance of the killing behavior. Since the rats are not deprived of food or water and rarely attempt to eat the mouse, this behavior is not motivated by hunger. Four weeks after the first test for killing, the rats are injected, i.p., with placebo and then tested 30/60 minutes after the injection. […] Only rats that consistantly kill mice placed in their home cages are used for drug testing. Every treatment-group is comprised of 5 rats. […] Blockade of muricidal behavior is determined by observing the number of surviving mice 5 minutes after being introduced into the rat cages.

[1] = Acute oral toxicity (LD50); settings: mouse, in vivo; oral dose in mice

| Structure (SMILES) | protection from methamphetamine lethality (methamphetamine; control, perphenazine at 1 mg/kg, aggregated mice, methamphetamine 15 mg/kg i.p.) | ED50 (methamphetamine; Mus musculus, po, 4 h) [mg/kg] | ED50 (muricidal behavior) [mg/kg] | LD50 [1] [mg/kg] |
| --- | --- | --- | --- | --- |
| OCCN1CCN(CCCN2c3ccccc3Sc3ccc(Cl)cc32)CC1 [perphenazine, reference compound] | complete protection |  |  |  |
| CN1CCc2cc(Cl)c(OC(=O)N(C)C)cc2[C@H](c2ccccc2)C1 [(S)-7-chloro-8-dimethylaminocarbonyloxy-3-methyl-1-phenyl-2,3,4,5-tetrahydro-lH-3-benzazepine hydrochloride] |  | 1.2 | 5.7 | > 300 |
